# Test results reported in patent publication US7608627B2, “6-azaindole compound” (Takeda Pharmaceutical Company Limited, priority 2005, dated 2009).
# Counter-ions that a name gives are not always drawn.
row,melting point,Compound
1,53 to 61 °C,"OC(c1ccccc1)c1cc2ccnc(N(Cc3ccccc3)Cc3ccccc3)c2[nH]1 (stereo not drawn) [Example 46, [7-(Dibenzylamino)-1H-pyrrolo[2,3-c]pyridin-2-yl](phenyl)methanol]"
2,> 320 °C,"O=C(Nc1ccncc1)c1cc2ccnc(Cl)c2[nH]1 [Example 22, 7-Chloro-N-(4-pyridinyl)-1H-pyrrolo[2,3-c]pyridine-2-carboxamide]"
3,> 340 °C,"O=C(NCc1ccncc1)c1cc2ccnc(Cl)c2[nH]1 [Example 6, 7-Chloro-N-(4-pyridinylmethyl)-1H-pyrrolo[2,3-c]pyridine-2-carboxamide]"
4,264 to 268 °C (dec.),"Cc1ccc(C(=O)c2cc3ccncc3[nH]2)cc1 [Example 100, (4-Methylphenyl)(1H-pyrrolo[2,3-c]pyridin-2-yl)methanone]"
5,182 to 192 °C,"O=C(NC(c1ccccc1)c1cc2ccncc2[nH]1)c1ccncc1 (stereo not drawn) [Example 49, N-[Phenyl (1H-pyrrolo[2,3-c]pyridin-2-yl)methyl]isonicotinamide]"
6,295 to 310 °C (dec.),Cl.Clc1nccc2cc(CNC3CCN(Cc4ccccc4)CC3)[nH]c12
7,84 to 88 °C,"CC(C)(C)OC(=O)NCCO/N=C(\c1ccccc1)c1cc2ccncc2[nH]1 [Example 60, tert-Butyl 2-[[[phenyl(1H-pyrrolo[2,3-c]pyridin-2-yl)methylene]amino]oxy]ethylcarbamate]"
8,206 to 208 °C,"O=C(NC(c1ccccc1)c1cc2ccncc2[nH]1)c1ccccc1 (stereo not drawn) [Example 51, N-[Phenyl(1H-pyrrolo[2,3-c]pyridin-2-yl)methyl]benzamide]"
9,152 to 153 °C,"O=C(c1ccccc1)c1cc2ccnc(Cl)c2[nH]1 [Example 29, (7-Chloro-1H-pyrrolo[2,3-c]pyridin-2-yl)(phenyl)methanone]"
10,264 to 266 °C (dec.),CNCc1cc2ccnc(Cl)c2[nH]1.Cl
11,98 to 101 °C,Cl.Clc1nccc2cc(CNCc3ccco3)[nH]c12
12,152 to 154 °C,"O=C(NCc1cccs1)c1cc2ccnc(N(Cc3ccccc3)Cc3ccccc3)c2[nH]1 [Example 38, 7-(Dibenzylamino)-N-(2-thienylmethyl)-1H-pyrrolo[2,3-c]pyridine-2-carboxamide]"
13,183 to 185 °C (dec.),"COc1ccc(C(O)c2cc3ccncc3[nH]2)cc1 (stereo not drawn) [Example 99, (4-Methoxyphenyl)(1H-pyrrolo[2,3-c]pyridin-2-yl)methanol]"
14,176 to 179 °C,Cl.Clc1nccc2cc(CNCc3ccccn3)[nH]c12
15,246 to 250 °C,"O=C(CCc1ccccc1)c1cc2ccncc2[nH]1 [Example 89, 3-Phenyl-1-(1H-pyrrolo[2,3-c]pyridin-2-yl)propan-1-one]"
16,274 to 278 °C,N=C(N)N/N=C(\c1ccccc1)c1cc2cc(Cl)ncc2[nH]1 (as salt: hydrochloride)
17,161 to 165 °C (dec.),Cl.NCCO/N=C(\c1ccccc1)c1cc2ccncc2[nH]1 [Example 95]
18,170 to 171 °C,"O=C(c1cc2ccnc(Cl)c2[nH]1)N1CCOCC1 [Example 3, 7-Chloro-2-(4-morpholinylcarbonyl)-1H-pyrrolo[2,3-c]pyridine]"
19,199 to 200 °C,"O=C(NCc1ccncc1)c1cc2ccnc(NCc3ccccc3)c2[nH]1 [Example 42, 7-(Benzylamino)-N-(4-pyridinylmethyl)-1H-pyrrolo[2,3-c]pyridine-2-carboxamide]"
20,220 to 222 °C,CON=C(c1ccccc1)c1cc2ccncc2[nH]1.Cl [Example 121]

row,melting point,Compound
1,64 to 68 °C,"NCCON=C(c1ccc(Cl)c(Cl)c1)c1cc2ccncc2[nH]1 (as salt: trifluoroacetate) [Example 134, (3,4-Dichlorophenyl)(1H-pyrrolo[2,3-c]pyridin-2-yl)methanone O-(2-aminoethyl)oxime bis(hydrogen trifluoroacetate)]"
2,241 to 244 °C,Cl.Clc1nccc2cc(CNC3CCCC3)[nH]c12
3,232 to 236 °C,CC(C)C/C(=N\NC(=N)N)c1cc2ccncc2[nH]1 (as salt: hydrochloride)
4,179 to 184 °C,"CC(=O)N1CCN(C(=O)c2cc3ccnc(Cl)c3[nH]2)CC1 [Example 12, 2-[(4-Acetyl-1-piperazinyl)carbonyl]-7-chloro-1H-pyrrolo[2,3-c]pyridine]"
5,289 to 292 °C,"CC(N)c1cc2ccncc2[nH]1 (stereo not drawn) (as salt: hydrochloride) [Example 75, 1-(1H-Pyrrolo[2,3-c]pyridin-2-yl)ethylamine dihydrochloride]"
6,224 to 228 °C,"CC(C)C(=O)c1cc2ccncc2[nH]1 [Example 80, 2-Methyl-1-(1H-pyrrolo[2,3-c]pyridin-2-yl)-1-propanone]"
7,230 to 232 °C,CN1CCN(C(=O)c2cc3ccnc(Cl)c3[nH]2)CC1
8,178 to 180 °C,"OC(c1ccccc1)c1cc2ccncc2[nH]1 (stereo not drawn) [Example 52, Phenyl(1H-pyrrolo[2,3-c]pyridin-2-yl)methanol]"
9,189 to 191 °C,"O=C(NCc1cccnc1)c1cc2ccnc(Cl)c2[nH]1 [Example 5, 7-Chloro-N-(3-pyridinylmethyl)-1H-pyrrolo[2,3-c]pyridine-2-carboxamide]"
10,94 to 102 °C,"O=C(Nc1ccccn1)c1cc2ccnc(Cl)c2[nH]1 [Example 20, 7-Chloro-N-(2-pyridinyl)-1H-pyrrolo[2,3-c]pyridine-2-carboxamide]"
11,240 to 244 °C,Cl.Clc1nccc2cc(CN3CCCCC3)[nH]c12
12,194 to 197 °C,"O=C(c1ccccc1)c1cc2cc(Cl)ncc2[nH]1 [Example 73, (5-Chloro-1H-pyrrolo[2,3-c]pyridin-2-yl)(phenyl)methanone]"
13,170 to 185 °C (dec.),"Clc1nccc2cc(C(NCc3ccccc3)c3ccccc3)[nH]c12 (stereo not drawn) (as salt: hydrochloride) [Example 34, N-Benzyl-N-[(7-chloro-1H-pyrrolo[2,3-c]pyridin-2-yl)(phenyl)methyl]amine dihydrochloride]"
14,185 to 187 °C,"OCc1cc2ccnc(Cl)c2[nH]1 [Example 1, (7-Chloro-1H-pyrrolo[2,3-c]pyridin-2-yl)methanol]"
15,78 to 82 °C,"Cc1ccc(C(O)c2cc3ccncc3[nH]2)cc1 (stereo not drawn) [Example 98, (4-Methylphenyl)(1H-pyrrolo[2,3-c]pyridin-2-yl)methanol]"
16,240 to 245 °C (dec.),"c1ccc(C(=NOC2CCNCC2)c2cc3ccncc3[nH]2)cc1 (single isomer, unassigned) (as salt: hydrochloride)"
17,240 to 245 °C (dec.),"Cl.Cl.c1ccc(C(=NOC2CCCNC2)c2cc3ccncc3[nH]2)cc1 (single isomer, unassigned)"
18,274 to 277 °C (dec.),"O=C(c1ccc(Cl)c(Cl)c1)c1cc2ccncc2[nH]1 [Example 127, (3,4-Dichlorophenyl)(1H-pyrrolo[2,3-c]pyridin-2-yl)methanone]"
19,80 to 82 °C,"CC(C)(C)OC(=O)N1CCC(ON=C(c2ccccc2)c2cc3ccncc3[nH]2)C1 (stereo not drawn) [Example 90, tert-Butyl 3-[[[phenyl(1H-pyrrolo[2,3-c]pyridin-2-yl)methylene]amino]oxy]pyrrolidine-1-carboxylate]"
